Laboratory results from US7317028B2, “Cell differentiation inducer” (Schering Aktiengesellschaft, priority 1996, dated 2008).
Values belong to the compound of their own block, whether it stands above or below them.

Columns and labels:
[1] = tested on: A2780 cells; experiment: Test for induction of differentiation in A2780 cells (ALP activity, ALPmin); assay type: cell-based, human; conditions: Homo sapiens, 72 h; A2780 cells, 3 days incubation; minimum concentration of the drug inducing increase of ALP activity
In short: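 A2780 cells seeded at 15,000/well, test compound added in serial dilution the next day. ALP reaction stopped with 3N NaOH and absorbance read at 405 nm; ALPmin is the lowest concentration raising ALP activity.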

SMILES: Nc1ccccc1NC(=O)c1ccc(NC(=O)Cc2ccc([N+](=O)[O-])cc2)cc1 [Example 104, N-(2-aminophenyl)-4-[(4-nitrophenylacetyl)amino]benzamide]
minimal effective concentration [1]: 1 µM
melting point: 222 to 226 °C

SMILES: Nc1ccccc1CC(=O)Nc1ccc(C(=O)Nc2ccccc2N)cc1 [Example 105, N-(2-aminophenyl)-4-[(2-aminophenylacetyl)amino]benzamide]
minimal effective concentration [1]: 1 µM
melting point: 177 to 182 °C (dec.)

SMILES: CN(C)c1ccc(CC(=O)Nc2ccc(C(=O)Nc3ccccc3N)cc2)cc1 [Example 108, N-(2-aminophenyl)-4-[[4-(N,N-dimethylamino)phenylacetyl]amino]benzamide]
minimal effective concentration [1]: 3 µM
melting point: 140 °C

SMILES: Nc1ccccc1NC(=O)c1ccc(NC(=O)CN(Cc2cccnc2)C(=O)C(F)(F)F)cc1 [Example 114, N-(2-aminophenyl)-4-[[N-(pyridin-3-yl)methyl-N-trifluoroacetylamino]acetylamino]benzamide]
minimal effective concentration [1]: 3 µM
melting point: 145 °C (dec.)

SMILES: CN(CC(=O)Nc1ccc(C(=O)Nc2ccccc2N)cc1)Cc1cccnc1 [Example 119, N-(2-aminophenyl)-4-[[N-(pyridin-3-yl)methyl-N-methylamino]acetylamino]benzamide]
minimal effective concentration [1]: 3 µM
melting point: 154 to 155 °C

SMILES: Nc1ccccc1NC(=O)c1ccc(NC(=O)CCC(=O)c2cccnc2)cc1 [Example 121, N-(2-aminophenyl)-4-[4-(pyridin-3-yl)-1,4-dioxobutylamino]benzamide]
minimal effective concentration [1]: 3 µM
melting point: 190 to 194 °C

SMILES: Nc1ccccc1NC(=O)c1ccc(NC(=O)CC(=O)Nc2cccnc2)cc1 [Example 122, N-(2-aminophenyl)-4-[3-[N-(pyridin-3-yl)amino]-1,3-dioxopropylamino]benzamide]
minimal effective concentration [1]: 0.03 µM
melting point: 196 °C (dec.)

SMILES: Cc1cc(C(=O)Nc2ccccc2N)ccc1NC(=O)COCc1cccnc1 [Example 123, N-(2-aminophenyl)-4-[N-(pyridin-3-yl)methoxyacetylamino]-3-methylbenzamide]
minimal effective concentration [1]: 3 µM
melting point: 178 to 181 °C (dec.)

SMILES: CN(C(=O)COCc1cccnc1)c1ccc(C(=O)Nc2ccccc2N)cc1 [Example 125, N-(2-aminophenyl)-4-[N-methyl-N-(pyridin-3-yl)methoxyacetylamino]benzamide]
minimal effective concentration [1]: 0.1 µM
melting point: 180 to 183 °C (dec.)

SMILES: Nc1ccccc1NC(=O)c1ccc(NC(=O)CNC(=O)c2cccnc2)cc1 [Example 127, N-(2-aminophenyl)-4-[N-(N-nicotinoylamino)acetylamino]benzamide]
minimal effective concentration [1]: 0.3 µM
melting point: 218 to 220 °C (dec.)

SMILES: CC(Oc1cccnc1)C(=O)Nc1ccc(C(=O)Nc2ccccc2N)cc1 (stereo not drawn) [Example 129, N-(2-aminophenyl)-4-[N-[2-(pyridin-3-yl)oxypropionyl]amino]benzamide]
minimal effective concentration [1]: 1 µM
melting point: 193 to 196 °C

SMILES: CC(OCc1cccnc1)C(=O)Nc1ccc(C(=O)Nc2ccccc2N)cc1 (stereo not drawn) [Example 131, N-(2-aminophenyl)-4-[N-[2-(pyridin-3-yl)methoxypropionyl]amino]benzamide]
minimal effective concentration [1]: 0.3 µM
melting point: 144 to 148 °C

SMILES: Nc1ccccc1NC(=O)c1ccc(C(=O)NCc2ccccc2)cc1 [Example 132, N-(2-aminophenyl)-4-(N-benzylamino)carbonylbenzamide]
minimal effective concentration [1]: 10 µM
melting point: 239 to 241 °C (dec.)

SMILES: Nc1ccccc1NC(=O)c1ccc(C(=O)NCCc2ccccc2)cc1 [Example 133, N-(2-aminophenyl)-4-[N-(2-phenylethyl)amino]carbonylbenzamide]
minimal effective concentration [1]: 3 µM
melting point: 237 to 240 °C (dec.)

SMILES: Nc1ccccc1NC(=O)c1ccc(NC(=O)COc2ccc([N+](=O)[O-])cc2)cc1 [Example 134, N-(2-aminophenyl)-4-[N-(4-nitrophenoxyacetyl)amino]benzamide]
minimal effective concentration [1]: 3 µM
melting point: 212 to 215 °C (dec.)

SMILES: Cl.Nc1ccccc1NC(=O)c1ccc(-n2cc(COCc3ccccc3)oc2=O)cc1 [Example 138, N-(2-aminophenyl)-4-(5-benzyloxymethyl-1,3-oxazolin-2-on-3-yl)benzamide hydrochloride]
minimal effective concentration [1]: 1 µM
melting point: 181 to 183 °C

SMILES: Nc1ccccc1NC(=O)c1ccc(-n2cc(COCc3cccnc3)oc2=O)cc1 [Example 140, N-(2-aminophenyl)-4-[5-(pyridin-3-yl)methyloxymethyl-1,3-oxazolin-2-on-3-yl]benzamide]
minimal effective concentration [1]: 0.3 µM
melting point: 160 to 164 °C (dec.)

SMILES: Nc1ccccc1NC(=O)c1ccc(-n2cc(COc3cccc([N+](=O)[O-])c3)oc2=O)cc1 [Example 141, N-(2-aminophenyl)-4-[5-(3-nitrophenoxy)methyl-1,3-oxazolin-2-on-3-yl]benzamide]
minimal effective concentration [1]: 1 µM
melting point: 230 °C (dec.)

SMILES: Nc1ccccc1NC(=O)c1ccc(-n2cc(COCc3ccccn3)oc2=O)cc1 [Example 142, N-(2-aminophenyl)-4-[5-(pyridin-2-yl)methyloxymethyl-1,3-oxazolin-2-on-3-yl]benzamide]
minimal effective concentration [1]: 0.1 µM
melting point: 172 to 174 °C

More lines, main results first:

melting point: 232 to 237 °C
SMILES: Nc1ccccc1NC(=O)c1ccc(NC(=O)Cc2ccccc2)cc1 [Example 100, N-(2-aminophenyl)-4-(phenylacetylamino)benzamide]
minimal effective concentration [1]: 1 µM

melting point: 219 to 226 °C (dec.)
SMILES: Nc1ccc(CC(=O)Nc2ccc(C(=O)Nc3ccccc3N)cc2)cc1 [Example 106, N-(2-aminophenyl)-4-[(4-aminophenylacetyl)amino]benzamide]
minimal effective concentration [1]: 1 µM

melting point: 182 to 189 °C (dec.)
SMILES: Cl.Cl.Nc1ccccc1NC(=O)c1ccc(NC(=O)Cc2cccnc2)cc1 [Example 111, N-(2-aminophenyl)-4-[(pyridin-3-yl)acetylamino]benzamide dihydrochloride]
minimal effective concentration [1]: 3 µM

melting point: 184 to 186 °C
SMILES: Nc1ccccc1NC(=O)c1ccc(NC(=O)CCc2cccnc2)cc1 [Example 112, N-(2-aminophenyl)-4-[[3-(pyridin-3-yl)propanoyl]amino]benzamide]
minimal effective concentration [1]: 0.1 µM

melting point: 160 °C (dec.)
SMILES: Nc1ccccc1NC(=O)c1ccc(NC(=O)CNCc2cccnc2)cc1 [Example 115, N-(2-aminophenyl)-4-[[N-(pyridin-3-yl)methylamino]acetylamino]benzamide]
minimal effective concentration [1]: 0.01 µM

melting point: 175 to 179 °C
SMILES: Nc1ccccc1NC(=O)c1ccc(NC(=O)COc2cccnc2)cc1 [Example 120, N-(2-aminophenyl)-4-[N-(pyridin-3-yl)oxyacetylamino]benzamide]
minimal effective concentration [1]: 0.3 µM

melting point: 186 to 189 °C
SMILES: Nc1ccccc1NC(=O)c1ccc(NC(=O)COCc2ccsc2)cc1 [Example 124, N-(2-aminophenyl)-4-[N-(thiophen-3-yl)methoxyacetylamino]benzamide]
minimal effective concentration [1]: 3 µM

melting point: 171 to 173 °C
SMILES: Nc1ccccc1NC(=O)c1ccc(NC(=O)COCc2ccccn2)cc1 [Example 126, N-(2-aminophenyl)-4-[N-(pyridin-2-yl)methoxyacetylamino]benzamide]
minimal effective concentration [1]: 3 µM
